Source: patent US12208077B2, “Synergistic composition for potentiating stabilized ATP” (CELAGENEX RESEARCH (INDIA) PVT. LTD., priority 2021, dated 2025)

Tests used:
HepG2 cells = test: Estimation of cellular ATP levels in HepG2 cells (BioVision kit); format: cell-based, human; details: 24 hr treatment, amount of each test substance as in the group name (Table 1/3)
Description: In vitro evaluation of the modulatory potential of the test substances on cellular ATP levels in (HepG2) human Hepatocellular carcinoma cell line.
(§1) About 10 mg of all the test substances were dissolved separately with 1 ml DMEM-HG supplemented with 2% inactivated FBS to obtain a stock solution of 10 mg/ml concentration and sterilized by 0.22u syringe filtration. Diluted the stock to desired concentration for carrying out further studies.
(§2) Cell line HepG2 was procured from NCCS (National Center for Cell Sciences), Pune, and was cultured in DMEM-HG supplemented with 10% inactivated Fetal Bovine Serum (FBS), penicillin (100 IU/ml), streptomycin (100 μg/ml) and amphotericin B (5 μg/ml) in a humidified atmosphere of 5% CO2 at 37° C. until confluent. The cells were dissociated with TPVG solution (0.2% trypsin, 0.02% EDTA, 0.05% glucose in PBS). The stock cultures were grown in 25 cm^2 culture flasks and all experiments were carried out in 96 well microtitre plates (Tarsons India Pvt. Ltd., Kolkata, India).
HepG2 cells were trypsinized from stock culture flasks and the cell count was adjusted to 1.0×10^5cells/ml, the cell suspension was seeded into a 96-well plate. After 24 hr, cell cultures with 70-80% confluency, cells were treated with different non-toxic concentrations of test substances. After 24 hr of treatment, the plate was washed with phosphate buffer saline. The cellular ATP levels determination was performed according to the instruction given in the kit manual (BioVision, #K354-100). At the end of the experiment, the optical density was read at 570 nm using microplate reader. From the absorbance values, the cellular ATP levels were estimated using kit protocol and the concentration of cellular ATP levels in treated groups were determined in comparison to the control groups.

[1] = cited from earlier work
erythrocytes = details: humans; after 24 h of continuous infusion; dose-dependent; cited from earlier work
[2] = cited from earlier work; remark: listed apart in the source
[3] = In vitro cytotoxicity by MTT assay on HepG2 cell line; format: cell-based, human; details: human, HepG2 cells; for cytotoxicity at 24 h, 62.5 μg/mL: Test Conc. 62.5 μg/mL; for cytotoxicity at 24 h, 125 μg/mL: Test Conc. 125 μg/mL; for cytotoxicity at 24 h, 250 μg/mL: Test Conc. 250 μg/mL; for cytotoxicity at 24 h, 500 μg/mL: Test Conc. 500 μg/mL; for cytotoxicity at 24 h, 1000 μg/mL: Test Conc. 1000 μg/mL; for cytotoxicity at 24 h, 2000 μg/mL: Test Conc. 2000 μg/mL; for cytotoxicity at 24 h, 3000 μg/mL: Test Conc. 3000 μg/mL; for cytotoxicity at 24 h, 4000 μg/mL: Test Conc. 4000 μg/mL; for cytotoxicity at 24 h, 5000 μg/mL: Test Conc. 5000 μg/mL
Description: (§3) The in vitro cytotoxicity was performed on HepG2 (Human Hepatocellular Carcinoma) cell line to find the non-toxic concentrations of the test substances by MTT assay and evaluate their modulatory potential on cellular ATP levels
as §1, §2
(§4) The monolayer cell culture was trypsinized and the cell count was adjusted to 1.0×10^5cells/ml using DMEM-HG containing 10% FBS. To each well of the 96 well microtitre plate, 0.1 ml of the diluted cell suspension was added. After 24 h, when a partial monolayer was formed, the supernatant was flicked off, the monolayer was washed once with medium and 100 μl of different concentrations of test substances were added. The plate was then incubated at 37° C. for 24 h in a 5% CO2 atmosphere, and microscopic examination was carried out and observations were noted after 24 h time.
(§5) After 24 h of incubation, the drug solutions in the wells were discarded and 50 μl of MTT in DPBS was added to each well. The plate was gently shaken and incubated for 3 h at 37° C. in a 5% CO2 atmosphere. The supernatant was removed and 100 μl of 2-propanol was added and the plate was gently shaken to solubilize the formed formazan. The absorbance was measured using a microplate reader at a wavelength of 570 nm. The percentage growth inhibition was calculated using the standard formula. The concentration of test substances, needed to inhibit the growth of the cell by 50% i.e., CTC50 values were generated from the dose-response curves

HepG2 cell line = test: as above; format: cell-based, human; details: Homo sapiens, concentration needed to inhibit growth of the cell by 50%, 24 h, read-out: CTC50
Description: as §3, §1, §2, §4, §5

MS-related fatigue = details: treatment of MS-related fatigue; cited from earlier work
[4] = tested on: Patients with hepatic encephalopathy (HE); details: patients with hepatic encephalopathy treated with ALCAR; cited from earlier work

Structure (SMILES)	Cellular ATP (HepG2 cells)	Percentage enhancement of cellular ATP levels over cell control (HepG2 cells)	half-life of infused ATP [1]	increase of ATP concentrations in erythrocytes (erythrocytes)	stability in acidic conditions [2]	cytotoxicity at 24 h, 62.5 μg/mL [3]	cytotoxicity at 24 h, 125 μg/mL [3]	cytotoxicity at 24 h, 250 μg/mL [3]	cytotoxicity at 24 h, 500 μg/mL [3]	cytotoxicity at 24 h, 1000 μg/mL [3]	cytotoxicity at 24 h, 2000 μg/mL [3]	cytotoxicity at 24 h, 3000 μg/mL [3]	cytotoxicity at 24 h, 4000 μg/mL [3]	cytotoxicity at 24 h, 5000 μg/mL [3]	IC50 (HepG2 cell line)	efficacy compared with amantadine (MS-related fatigue)	physical activity [4]	severity of mental and physical fatigue [4]
Nc1ncnc2c1ncn2[C@@H]1O[C@H](COP(=O)(O)OP(=O)(O)OP(=O)(O)O)[C@@H](O)[C@H]1O [ATP, Adenosine triphosphate]	119.88 ± 0.45 nM	230.33%	less than one	~60%	quickly decompose	–	–	–	–	–	–	–	–	–	–	–	–	–
CC(=O)O[C@H](CC(=O)O)C[N+](C)(C)C [N-Acetyl L carnitine, (3R)-3-acetyloxy-4-(trimethylazaniumyl) butanoate]	39.92 ± 0.45 nM	10.00%	–	–	–	0.982 ± 0.876%	0.546 ± 0.408%	1.31 ± 0.134%	1.69 ± 0.204%	2.46 ± 1.58%	2.62 ± 0.964%	3 ± 0.736%	5.18 ± 2.68%	32.6 ± 2.55%	> 5000 µg/mL	more effective	increase	decrease
OO [Composition H2O2, H2O2, reference compound]	22.35 ± 0.48 nM	−38.40%	–	–	–	–	–	–	–	–	–	–	–	–	–	–	–	–
CC(=O)NCCS(=O)(=O)O [Magnesium Acetyl Taurate, magnesium; 2-acetamidoethanesulfonate; dihydrate]	56.28 ± 0.56 nM	55.07%	–	–	–	1.31 ± 0.231%	1.25 ± 0.91%	1.75 ± 0.43%	1.53 ± 0.408%	1.36 ± 0.967%	6.55 ± 0.482%	3.71 ± 1.34%	6.17 ± 2.39%	12.2 ± 1.56%	> 5000 µg/mL	–	–	–
